In experiment [1] the test system is C. elegans. Description: Growth rate / worm size. The experiment is classed as in vivo. The settings on record: 100 mM H2O2 plus supplement (10 mM GA, 100 μM glycine or 500 μM L-serine). As to the method: Synchronized L1 worms were incubated at 15° C. on plates or in liquid culture and exposed to different conditions as indicated. Single worms were selected randomly from the plates or aliquots were taken from the liquid cultures and added to NGM plates for immediate visualization. 25 worms per treatment were measured at 24-48 hr intervals and all growth curves were done four times.

Experiment [2] concerns C. elegans. The experiment in a line: H2O2 accumulation in worms (Amplex Red). The experiment is classed as in vivo. The note with it: co-supplemented with peroxide and GA vs peroxide alone, 3 days. As to the method:
Hydrogen peroxide was measured using the Amplex Red hydrogen peroxide/peroxidase assay kit (Molecular Probes, Eugene, OR), adapting the protocol to C. elegans. In the presence of hydrogen peroxide, Amplex Red is oxidized by horseradish peroxidase to form a red-fluorescent oxidation product whose fluorescence intensity can be measured.
To measure ROS production from C. elegans, 5000-7000 L1 worms were exposed to each condition for 2-3 days as indicated and then washed four times in 1 ml of the reaction buffer supplied with the kit. Volumes were adjusted to 700-1200 nematodes/50 μl and 50 μl was pipetted into a 96-well plate. A total of 50 μl of the Amplex Red reaction buffer was then added to the wells, and after 1 hr fluorescence was measured with a fluorescence microplate reader using excitation at 530±12.5 nm and fluorescence detection at 590±17.5 nm. Background fluorescence, determined for a no-H2O2 control reaction, was subtracted from each value. The significance of differences between conditions was determined by an unpaired fest. GraphPadPrism 8.0 was used for these calculations. Three biological replicates were carried out for each condition.

In experiment [3] the test system is C. elegans. Description: Quantification of glutathione (GSH/GSSG-Glo). Type of experiment: in vivo. As to the method: Sample preparation was performed as described previously with some modifications^6. From each condition 10,000 synchronized animals were harvested and washed 3 times with sterile water. […] To thoroughly lyse the worms, 5 cycles of freezing and thawing were performed in a water bath at 37° C., followed by a 1-min sonication. The samples were then centrifuged and the supernatant tested for protein estimation and GSH quantification. Total GSH, GSSG, and GSH/GSSG ratios were quantified using the GSH/GSSG-Glo assay kit (Promega) following the instructions of the manufacturer. Briefly, each sample was tested in triplicate in 96-well culture plates with total glutathione or GSSG lysis reagent, for total glutathione or GSSG measurement, respectively. The GSH probe, luciferin-NT, was converted to luciferin, which is coupled to a firefly luciferase. The plates were then read in an […] plate reader (Perkin Elmer, United States). The GSSG value was subtracted from the total glutathione to calculate GSH levels and GSH/GSSG ratio. Four biological replicates were analyzed for each condition.

Experiment [4] relates to living organism treated with Paraquat (PQ2+). The note with it: cited from earlier work.

Each structure is given as a SMILES string.

With `O=C(O)CO` [GA, glycolic acid], the Growth entry in the experiment with C. elegans [1] is reported as “able to restore both traits”. The “Accumulation of H2O2” value in the experiment with C. elegans [2] was “diminished”. In addition, the GSH/GSSG ratio in the experiment with C. elegans [3] (H2O2+GA, control 107.5) was found to be 77.4. For the same molecule, the Total glutathione in the experiment with C. elegans [3] (H2O2 in the presence of GA (10 mM), 3 days) was 91 % of the control. Further, the “Oxidized form of glutathione (GSSG)” value in the experiment on C. elegans [3] (H2O2 with addition of GA) is 140 % of the control. The “Total glutathione, effect of GA addition” value in the experiment on C. elegans [3] (peroxide-treated ghpr-1 and ghpr-1, gox-1, ldh-1 mutant strains) is on record as “unaffected”. Also, in the experiment with C. elegans [3] (peroxide-treated ghpr-1 and triple mutants co-incubated with GA), the “Increase in GSSG, rescue by GA” value is given as “not rescued”. For the same molecule, in experiment [4] (PQ2+ exposure), the Animal growth result was “unable to restore” and the “OCR (Oxygen consumption Rate)” value is given as “unable to restore”. In experiment [4] (Paraquat (PQ2+) treated), the Mitochondrial membrane potential result is “can restore”.

The values above are taken from patent publication US20230414657A1, “Novel compositions for neutralizing toxic effects of hydrogen peroxide in living cells or tissues” (Dzala LLC, priority 2020, published 2023).
